pIC50: −log10 of the molar value.
Target: Factor D (Homo sapiens (Human), UniProt P00746)
Assay: biochemical
Assay type: biochemical
Settings: read-out: IC50

Chain of Factor D (P00746 26-253): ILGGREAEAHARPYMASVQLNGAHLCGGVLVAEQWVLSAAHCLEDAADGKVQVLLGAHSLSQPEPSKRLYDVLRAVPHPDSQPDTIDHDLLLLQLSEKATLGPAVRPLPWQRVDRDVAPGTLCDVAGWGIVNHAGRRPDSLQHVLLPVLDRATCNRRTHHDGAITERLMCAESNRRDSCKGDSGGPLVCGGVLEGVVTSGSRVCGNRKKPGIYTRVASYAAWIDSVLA

NC(=O)n1cc(NC(=O)N2C[C@@H](N)C[C@H]2C(=O)NCc2cccc(Oc3ccccc3)c2)c2ccccc21 [Example 38, (2S,4S)-4-Amino-pyrrolidine-1,2-dicarboxylic acid 1-[(1-carbamoyl-1H-indol-3-yl)-amide] 2-(3-phenoxy-benzylamide)]
pIC50: 5.20

NC(=O)c1nn(CC(=O)N2[C@@H]3C[C@@H]3C[C@H]2C(=O)NCc2cccc(Cl)c2F)c2ccccc12 [Example 692, 1-{2-[(1R,3S,5R)-3-(3-Chloro-2-fluoro-benzylcarbamoyl)-2-aza-bicyclo[3.1.0]hex-2-yl]-2-oxo-ethyl}-1H-indazole-3-carboxylic acid amide]
pIC50: 8.52

CC(=O)c1cn(CC(=O)N2C[C@H](F)C[C@H]2C(=O)NCc2cccc(Cl)c2F)c2ccc(OCc3ccccn3)cc12 [Example 589, (2S,4R)-1-{2-[3-Acetyl-5-(pyridin-2-ylmethoxy)-indol-1-yl]-acetyl}-4-fluoro-pyrrolidine-2-carboxylic acid 3-chloro-2-fluoro-benzylamide]
pIC50: 6.63

NC(=O)c1cn(CC(=O)N2C[C@H](F)C[C@H]2C(=O)NCc2cccc(Cl)c2F)c2cc(F)c(F)cc12 [Example 492, 1-{2-[(2S,4R)-2-(3-Chloro-2-fluoro-benzylcarbamoyl)-4-fluoro-pyrrolidin-1-yl]-2-oxo-ethyl}-5,6-difluoro-1H-indole-3-carboxylic acid amide]
pIC50: 6.63

CC(=O)c1cn(CC(=O)N2[C@@H]3C[C@@H]3C[C@H]2C(=O)NCc2cccc(Cl)c2F)c2cnc(C)cc12 [Example 646, (1R,3S,5R)-2-[2-(3-Acetyl-5-methyl-pyrrolo[2,3-c]pyridin-1-yl)-acetyl]-2-aza-bicyclo [3.1.0]hexane-3-carboxylic acid 3-chloro-2-fluoro-benzylamide]
pIC50: 7.92

COC(=O)[C@H](Cc1ccccc1)NC(=O)[C@@H]1C[C@H](N)CN1C(=O)Nc1cn(C(N)=O)c2ccccc12 [Example 97, (S)-2-{[(2S,4S)-4-Amino-1-(1-carbamoyl-1H-indol-3-ylcarbamoyl)-pyrrolidine-2-carbonyl]-amino}-3-phenyl-propionic acid methyl ester]
pIC50: 6.05

COC(=O)c1cc(Cl)c(F)c(CNC(=O)[C@@H]2C[C@@H](F)CN2C(=O)Nc2cn(C(N)=O)c3ccccc23)c1 [Example 244, 3-({[(2S,4R)-1-(1-Carbamoyl-1H-indol-3-ylcarbamoyl)-4-fluoro-pyrrolidine-2-carbonyl]-amino}-methyl)-5-chloro-4-fluoro-benzoic acid methyl ester]
pIC50: 7.77

C[C@]1(O)C[C@@H](C(=O)NCc2cccc(Cl)c2F)N(C(=O)Nc2cn(C(N)=O)c3ccccc23)C1 [Example 164, (2S,4S)-4-Hydroxy-4-methyl-pyrrolidine-1,2-dicarboxylic acid 1-[(1-carbamoyl-1H-indol-3-yl)-amide] 2-(3-chloro-2-fluoro-benzylamide)]
pIC50: 6.40

NC(=O)n1cc(NC(=O)N2CC[C@@H]3C[C@@]32C(=O)NCc2cccc(Cl)c2F)c2ccccc21 [Example 149, (1S,5R)-2-Aza-bicyclo[3.1.0]hexane-1,2-dicarboxylic acid 2-[(1-carbamoyl-1H-indol-3-yl)-amide] 1-(3-chloro-2-fluoro-benzylamide)]
pIC50: 4.97

NC(=O)c1nn(CC(=O)N2[C@H](C(=O)Nc3cccc(Br)n3)C[C@@]3(CO)C[C@@H]23)c2ccccc12 [Example 760, 1-{2-[(1R,3S,5S)-3-(6-Bromo-pyridin-2-ylcarbamoyl)-5-hydroxymethyl-2-aza-bicyclo[3.1.0]hex-2-yl]-2-oxo-ethyl}-1H-indazole-3-carboxylic acid amide]
pIC50: 7.92

NC(=O)c1nn(CC(=O)N2[C@@H]3C[C@@H]3C[C@H]2C(=O)Nc2cccc(-c3c(F)cccc3Cl)c2)c2cnccc12 [Example 722, 1-(2-((1R,3S,5R)-3-(2′-Chloro-6′-fluorobiphenyl-3-ylcarbamoyl)-2-azabicyclo[3.1.0]hexan-2-yl)-2-oxoethyl)-1H-pyrazolo[3,4-c] pyridine-3-carboxamide]
pIC50: 7.70

Cc1cc2c(C(N)=O)nn(CC(=O)N3[C@@H]4C[C@@H]4C[C@H]3C(=O)Nc3cccc(OC(F)(F)F)c3F)c2cn1 [Example 723, 1-{2-[(1R,3S,5R)-3-(2-Fluoro-3-trifluoromethoxy-phenylcarbamoyl)-2-aza-bicyclo[3.1.0]hex-2-yl]-2-oxo-ethyl}-5-methyl-1H-pyrazolo[3,4-c]pyridine-3-carboxylic acid amide]
pIC50: 7.05

CC(C)c1cc(NC(=O)[C@@H]2CCCN2C(=O)Nc2cn(C(N)=O)c3ccccc23)on1 [Example 439, (S)-Pyrrolidine-1,2-dicarboxylic acid 1-[(1-carbamoyl-1H-indol-3-yl)-amide]2-[(3-isopropyl-isoxazol-5-yl)-amide]]
pIC50: 5.90

NC(=O)n1cc(NC(=O)N2C[C@H](F)C[C@H]2C(=O)Nc2cc(Cl)cc(C(=O)O)c2)c2ccccc21 [Example 339, 3-Chloro-5-{[(2S,4R)-1-(1-carbamoyl-1H-indol-3-ylcarbamoyl)-4-fluoro-pyrrolidine-2-carbonyl]-amino}-benzoic acid]
pIC50: 7.19

COC1CN(C(=O)c2cc(Cl)c(F)c(CNC(=O)[C@@H]3C[C@@H](F)CN3C(=O)Nc3cn(C(N)=O)c4ccccc34)c2)C1 [Example 255, (2S,4R)-4-Fluoro-pyrrolidine-1,2-dicarboxylic acid 1-[(1-carbamoyl-1H-indol-3-yl)-amide] 2-[3-chloro-2-fluoro-5-(3-methoxy-azetidine-1-carbonyl)-benzylamide]]
pIC50: 6.36

CO[C@H]1[C@@H](C(=O)NCc2cccc(Cl)c2F)N(C(=O)Nc2cn(C(N)=O)c3ccccc23)C[C@@H]1F [Example 204, (2S,3S,4S)-4-Fluoro-3-methoxy-pyrrolidine-1,2-dicarboxylic acid 1-[(1-carbamoyl-1H-indol-3-yl)-amide] 2-(3-chloro-2-fluoro-benzylamide)]
pIC50: 8.15

CC(=O)c1cn(CC(=O)N2C[C@H](F)C[C@H]2C(=O)NCc2cccc(Cl)c2F)c2cc(OCc3ccc(C(=O)O)cc3)ccc12 [Example 602, 4-(3-Acetyl-1-{2-[(2S,4R)-2-(3-chloro-2-fluoro-benzylcarbamoyl)-4-fluoro-pyrrolidin-1-yl]-2-oxo-ethyl}-1H-indol-6-yloxymethyl)-benzoic acid]
pIC50: 6.64

NC(=O)n1cc(CC(=O)N2[C@@H]3C[C@@H]3C[C@H]2C(=O)NCc2cccc(Cl)c2F)c2ccc(CC(=O)O)cc21 [Example 473, (1-Carbamoyl-3-{2-[(1R,3S,5R)-3-(3-chloro-2-fluoro-benzylcarbamoyl)-2-aza-bicyclo[3.1.0]hex-2-yl]-2-oxo-ethyl}-1H-indol-6-yl)-acetic acid]
pIC50: 6.33

CC(=O)c1cn(CC(=O)N2C[C@H](F)C[C@H]2C(=O)NCc2cccc(Cl)c2F)c2ccccc12 [Example 507, (2S,4R)-1-[2-(3-Acetyl-indol-1-yl)-acetyl]-4-fluoro-pyrrolidine-2-carboxylic acid 3-chloro-2-fluoro-benzylamide]
pIC50: 7.80

CC(=O)c1cn(CC(=O)N2[C@@H]3C[C@@H]3C[C@H]2C(=O)NCc2cccc(Cl)c2F)c2cc(CC(=O)O)ccc12 [Example 596, (3-Acetyl-1-{2-[(1R,3S,5R)-3-(3-chloro-2-fluoro-benzylcarbamoyl)-2-aza-bicyclo[3.1.0]hex-2-yl]-2-oxo-ethyl}-1H-indol-6-yl)-acetic acid]
pIC50: 7.02

From US9085555B2, “Complement pathway modulators and uses thereof” (priority 2011, dated 2015)
